From patent US8592420B2, “Method of treating an anxiety disorder” (Kyowa Hakko Kirin Co., Ltd., priority 2003, dated 2013)

Columns and labels:
Format in all cases: in vivo
Mice [1] = experiment: Hole-Board Test in the mouse (Test Example 1)
Protocol: The method followed that described in Arch. Int. Pharmacodyn. Ther., 147, 372-387 (1964) with a slight modification.
Mice were individually placed on a square board (35×35 cm) raised 60 cm above the floor, containing 16 equally spaced holes (25 mm diameter). The number of head-dips occurring during a 5 minute test was counted.
(§1) The test compound or vehicle was administered orally 60 minutes before the test.
Data were analyzed by comparing the result of a tested group with that of a vehicle control group using an unpaired Student's t-test.

Mice [2] = experiment: Marble Burying Test in the mouse (Test Example 2)
Protocol: (§2) The method followed that described in Eur. J. Pharmacol., 126, 223-229 (1986) with a slight modification.
(§3) Mice exposed to a novel object (marbles) tend to bury them in the sawdust floor covering.
(§4) Mice were individually placed in transparent plastic cages with 25 colored marbles (diameter 1.5 cm) on 5 cm of the sawdust floor. The cage was covered with a similar cage upturned.
(§5) The number of marbles covered by sawdust (50% or more) was counted at the end of a 30 minute test.
as §1
Data were analyzed by comparing the result of treated groups with that of a vehicle control group using an unpaired Student's t-test.

rat [3] = experiment: Learned Helplessness in the rat (Test Example 3); conditions: FIG. 1, single treatment p.o. 60 min before test
Protocol: The method followed that described in J. Exp. Psychol., 74, 1-9 (1967) with a slight modification.
Preconditioning with inescapable electric foot shock was given individually to each rat in the shuttle box on day 1. A constant current (1.3 mA) shock generator delivered scrambled, inescapable shocks to the grid floor during 50 minute preconditioning period. Control rats were also individually placed in the identical chamber for 50 minutes, but shock was not given. Conditioned avoidance training session (FR1: buzzer 10 seconds, 0.6 mA foot shock; 5 seconds, interval time; 10 seconds/trial, 15 escape trials) and test session (FR2: 0.6 mA foot shock; 10 seconds, interval time; 0.5 seconds, 0.6 mA foot shock; 10 seconds, interval time; 15 seconds/trial, 15 trials) were performed on day 2 consecutively. FR1 session consisted of 15 trials during which a single shuttle response terminated shock and rats learned how to escape shocks. Subsequent FR2 session consisted of 15 trials during which each rat had to cross from one side of the shuttle box to the other and then crossed back to terminate shock. […]
The ratio of escape response was calculated from the following formula. […]
The ratio of intertrial response is calculated from the following formula. […]
Data were analyzed by comparing the result of a tested group with that of a vehicle control group using a Steel test.

rat [4] = experiment: Elevated Plus-Maze Test in the rat (Test Example 4)
Protocol: (§6) The method followed that described in Naunyn. Schmied. Arch. Pharmacol., 327, 1-5 (1984) with a slight modification.
(§7) The maze consisted of 4 arms of equal length and width (50×10 cm) arranged in the form of a plus sign (+). Two opposite arms were enclosed by 40 cm high walls (closed arms). The 2 other arms had no walls (open arms). The maze was raised 50 cm above the floor. A rat was placed in the center of the plus-maze and left to explore for 5 minutes. The number of entries into the open and closed arms and the time spent in the open arms was recorded.
The test compound or vehicle was administered orally 60 minutes before the test, respectively.
(§8) Data were analyzed by comparing the result of a treated group with that of a vehicle control group using an unpaired Student's t-test.

male rats = experiment: Social Interaction Test in the rat (Test Example 5)
Protocol: The method followed that described in Br. J. Pharmacol., 62, 19-24 (1978) with a slight modification.
A pair of male rats were placed in opposite corners of an open-topped arena (50×50×50 cm) and allowed to interact with each other. The time spent in active social interaction (i.e. sniffing, following, grooming, mounting, crawling under or over the partner) was recorded for a 10 minute session.
The test compound or vehicle was administered orally 60 minutes before the test, with each rat of the same pair receiving the same treatment.
Data were analyzed by comparing the result of a treated group with that of a vehicle control group using an unpaired Student's t-tests.

Mice [5] = experiment: Marble Burying Test in the mouse, adjunctive treatment with buspirone or fluoxetine (Test Example 7); conditions: for NUMBER OF MARBLES COVERED BY SAWDUST % change from control / NUMBER OF MARBLES COVERED BY SAWDUST mean ± s.e.m.: Table 5; for NUMBER OF MARBLES COVERED BY SAWDUST mean ± s.e.m.: 60 min before test, vehicle 17.1 ± 1.6; for effect of single administration on number of marbles covered by sawdust: single administration: Compound A 1 mg/kg, buspirone 15 mg/kg, fluoxetine 20 mg/kg, po
Protocol: as §2, §3, §4, §5
The test compound or vehicle was administered orally 60 minutes before the test either alone or in combination with buspirone or fluoxetine.
as §8

rat [6] = experiment: Elevated Plus-Maze Test in the rat, adjunctive treatment with alprazolam (Test Example 8); conditions: for OPEN ARMS NUMBER OF ENTRIES % change from control / OPEN ARMS TIME SPENT % change from control / OPEN ARMS NUMBER OF ENTRIES mean ± s.e.m. / OPEN ARMS TIME SPENT (sec) mean ± s.e.m.: Table 6; for OPEN ARMS NUMBER OF ENTRIES % change from control / OPEN ARMS TIME SPENT % change from control: single compound 1 mg/kg po; for OPEN ARMS NUMBER OF ENTRIES mean ± s.e.m. / OPEN ARMS TIME SPENT (sec) mean ± s.e.m.: single compound 1 mg/kg po 60 min before test; for OPEN ARMS NUMBER OF ENTRIES mean ± s.e.m.: vehicle 2.3 ± 0.6; for OPEN ARMS TIME SPENT (sec) mean ± s.e.m.: vehicle 37.4 ± 9.5; for effect alone on open arm entries and time spent in open arms: alone at 1 mg/kg po
Protocol: as §6, §7
The test compound or vehicle was administered orally 60 minutes before the test either alone or in combination with alprazolam.
as §8

Male Wistar rats = experiment: Vogel Conflict Test in the rat (Test Example 10); conditions: Table 7; 1 mg/kg po 60 min before test; 5 minutes punished session; vehicle 4.8 ± 1.3 (for C), 5.7 ± 0.8 (for D)
Protocol: The method followed that described in Psychopharmacol., 21, 1-7 (1971) with a slight modification. Male Wistar rats (160-200 g) were deprived of water for 48 hours prior to test session consisting of a 5 minutes period. Each rat was then placed in a test box (25×30×25 cm). The rat was allowed to explore the drinking spout to drink water. When the rat drinks a drip of water, the electric shock (0.16 mA, duration of 0.2 seconds) was delivered from the floor grid. […] The test compound or a vehicle was administered orally 60 minutes before the test, respectively. Data were analyzed by comparing the result of a tested group with that of a vehicle control group using an unpaired Student's t-test.

CCn1c(=O)c2c(nc(/C=C/c3ccc(OC)c(OC)c3)n2C)n(CC)c1=O [Compound A, (E)-8-(3,4-dimethoxystyryl)-1,3-diethyl-7-methylxanthine]
NUMBER OF HEAD-DIPS mean ± s.e.m. (Mice [1]; Table 1-A, 3 mg/kg p.o. 60 min before test, 5 minute test, vehicle 28.6 ± 2.4): 46.7 ± 3.2 | NUMBER OF ENTRIES INTO THE 4 QUADRANTS mean ± s.e.m. (Mice [1]; Table 1-A, 3 mg/kg p.o. 60 min before test, vehicle 12.7 ± 0.8): 24.4 ± 1.7 | NUMBER OF MARBLES COVERED BY SAWDUST % change from control (Mice [2]; Table 2-A, 3 mg/kg p.o. 60 min before test): −50% | NUMBER OF MARBLES COVERED BY SAWDUST mean ± s.e.m. (Mice [2]; Table 2-A, 3 mg/kg p.o. 60 min before test, 30 minute test, 25 marbles, vehicle 20.9 ± 1.4): 10.5 ± 2.9 | escape failure (ratio of escape response, FR2 trial) (rat [3]; 1.25 mg/kg and more): dose-dependently reversed the escape failure | intertrial crossings (ratio of intertrial response, FR2 trial) (rat [3]): did not increase intertrial crossings | OPEN ARMS NUMBER OF ENTRIES mean ± s.e.m. (rat [4]; Table 3-A, 3 mg/kg po 60 min before test, 5 minutes, vehicle 1.9 ± 0.3): 5.4 ± 0.7 | OPEN ARMS TIME SPENT (sec) mean ± s.e.m. (rat [4]; Table 3-A, 3 mg/kg po 60 min before test, vehicle 38.9 ± 7.7): 143 ± 20.9 s | TIME SPENT IN ACTIVE SOCIAL INTERACTION (sec) mean ± s.e.m. (male rats; Table 4-A, 3 mg/kg po 60 min before test, 10 minute session, vehicle 97.5 ± 8.7): 153 ± 11.2 s | NUMBER OF MARBLES COVERED BY SAWDUST % change from control (Mice [5]; Compound A 1 mg/kg po alone): −18% | NUMBER OF MARBLES COVERED BY SAWDUST mean ± s.e.m. (Mice [5]; Compound A 1 mg/kg po alone): 14.1 ± 1.6 | effect of single administration on number of marbles covered by sawdust (Mice [5]): no significant effects | OPEN ARMS NUMBER OF ENTRIES % change from control (rat [6]): +65% | OPEN ARMS TIME SPENT % change from control (rat [6]): +48% | OPEN ARMS NUMBER OF ENTRIES mean ± s.e.m. (rat [6]): 3.8 ± 0.8 | OPEN ARMS TIME SPENT (sec) mean ± s.e.m. (rat [6]): 55.2 ± 12.1 s | effect alone on open arm entries and time spent in open arms (rat [6]): moderate effect

COc1cc(/C=C/c2nc3c(c(=O)n(C)c(=O)n3C)n2C)cc(OC)c1OC [Compound B, (E)-1,3,7-trimethyl-8-(3,4,5-trimethoxystyryl)xanthine]
NUMBER OF HEAD-DIPS mean ± s.e.m. (Mice [1]; Table 1-B, 3 mg/kg p.o. 60 min before test, vehicle 30.2 ± 3.9): 43.9 ± 4.2 | NUMBER OF MARBLES COVERED BY SAWDUST % change from control (Mice [2]; Table 2-B, 3 mg/kg p.o. 60 min before test): −55% | NUMBER OF MARBLES COVERED BY SAWDUST mean ± s.e.m. (Mice [2]; Table 2-B, 3 mg/kg p.o. 60 min before test, vehicle 20.6 ± 1.1): 9.3 ± 1.9 | OPEN ARMS NUMBER OF ENTRIES mean ± s.e.m. (rat [4]; Table 3-B, 1 mg/kg po 60 min before test, vehicle 1.8 ± 0.8): 5.8 ± 0.8 | OPEN ARMS TIME SPENT (sec) mean ± s.e.m. (rat [4]; Table 3-B, 1 mg/kg po 60 min before test, vehicle 15.6 ± 8.1): 94.4 ± 15.2 s | TIME SPENT IN ACTIVE SOCIAL INTERACTION (sec) mean ± s.e.m. (male rats; Table 4-B, 3 mg/kg po 60 min before test, vehicle 89.0 ± 5.7): 141 ± 6.8 s

CC(C)(O)CCN1CCN(c2cc3nc(-c4ccco4)nn3c(N)n2)CC1 [Compound C, 5-amino-2-(2-furyl)-7-[4-(3-hydroxy-3-methylbutyl)piperazinyl][1,2,4]triazolo[1,5-c]pyrimidine]
NUMBER OF HEAD-DIPS mean ± s.e.m. (Mice [1]; Table 1-C, 10 mg/kg p.o. 60 min before test, vehicle 30.2 ± 3.9): 46.9 ± 3.4 | NUMBER OF MARBLES COVERED BY SAWDUST % change from control (Mice [2]; Table 2-C, 10 mg/kg p.o. 60 min before test, p 0.08): −17% | NUMBER OF MARBLES COVERED BY SAWDUST mean ± s.e.m. (Mice [2]; Table 2-C, 10 mg/kg p.o. 60 min before test, vehicle 20.9 ± 1.1, p 0.08): 17.0 ± 1.6 | OPEN ARMS NUMBER OF ENTRIES mean ± s.e.m. (rat [4]; Table 3-C, 30 mg/kg po 60 min before test, vehicle 2.3 ± 0.5, p 0.0503): 4.2 ± 0.8 | OPEN ARMS TIME SPENT (sec) mean ± s.e.m. (rat [4]; Table 3-C, 30 mg/kg po 60 min before test, vehicle 26.4 ± 6.6): 55.2 ± 10.7 s | TIME SPENT IN ACTIVE SOCIAL INTERACTION (sec) mean ± s.e.m. (male rats; Table 4-C, 30 mg/kg po 60 min before test, vehicle 96.2 ± 8.2): 130 ± 9.7 s | NUMBER OF SHOCKS mean ± s.e.m (Male Wistar rats): 10.5 ± 2.1

COCCOc1ccc(N2CCN(CCn3ncc4c3nc(N)n3nc(-c5ccco5)nc43)CC2)cc1 [Compound D, 5-amino-2-(2-furyl)-7-(2-{4-[4-(2-methoxyethoxy)phenyl]piperazinyl}ethyl)pyrazolo[4,3-e]-1,2,4-triazolo[1,5-c]pyrimidine]
NUMBER OF SHOCKS mean ± s.e.m (Male Wistar rats): 10.8 ± 1.6

Cc1nnc2n1-c1ccc(Cl)cc1C(c1ccccc1)=NC2 [alprazolam, reference compound]
OPEN ARMS NUMBER OF ENTRIES % change from control (rat [6]): +91% | OPEN ARMS TIME SPENT % change from control (rat [6]): +53% | OPEN ARMS NUMBER OF ENTRIES mean ± s.e.m. (rat [6]): 4.4 ± 0.9 | OPEN ARMS TIME SPENT (sec) mean ± s.e.m. (rat [6]): 57.3 ± 12.8 s | effect alone on open arm entries and time spent in open arms (rat [6]): moderate effect

O=C1CC2(CCCC2)CC(=O)N1CCCCN1CCN(c2ncccn2)CC1 [buspirone]
NUMBER OF MARBLES COVERED BY SAWDUST % change from control (Mice [5]; buspirone 15 mg/kg po alone): −26% | NUMBER OF MARBLES COVERED BY SAWDUST mean ± s.e.m. (Mice [5]; buspirone 15 mg/kg po alone): 12.7 ± 1.8 | effect of single administration on number of marbles covered by sawdust (Mice [5]): no significant effects

CNCCC(Oc1ccc(C(F)(F)F)cc1)c1ccccc1 (stereo not drawn) [fluoxetine]
NUMBER OF MARBLES COVERED BY SAWDUST % change from control (Mice [5]; fluoxetine 20 mg/kg po alone): −20% | NUMBER OF MARBLES COVERED BY SAWDUST mean ± s.e.m. (Mice [5]; fluoxetine 20 mg/kg po alone): 13.6 ± 2.5 | effect of single administration on number of marbles covered by sawdust (Mice [5]): no significant effects
